Each structure is given as a SMILES string. Where “and” joins values, the source holds several entries; their conditions need not be identical. Equal values may be shown once. Calls of active or inactive are those of the source.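 The calls were made as follows: active = compounds giving half or more protection of infected cells from virus-caused growth loss, again on retest; inactive = the rest.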 A value given as a limit tells only on which side of the number the result lay.

This assay concerns CEM cells HIV-1 protection, formazan growth assay. The assay is described as follows: NCI AIDS Antiviral Assay. Particulars: for IC50: measured here: growth of uninfected CEM cells. In short, it runs like this:
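Category rules: moderately active means at least 50% protection on retest, and confirmed active means 100% protection reproducibly. The underlying data came from a formazan growth assay in HIV-1-infected CEM cells.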

As usually defined, the EC50 is the concentration needed to bring the measured effect to its halfway point. As a reminder, the IC50 is the point on the concentration scale where inhibition reaches its midpoint. The low end stands for higher potency, the high end for lower potency. Consider `O=C1OC(C2Cc3cc4c(cc3C2=O)CCC4)c2ccccc21` (configuration not stated), for which the EC50 was over 200 µM and the IC50 was found to be 33.9 µM.
Regarding `CCOP(=O)(C/C=C/CN(C(=O)OC(C)(C)C)C(=O)OC(C)(C)C)OCC`, the result was inactive.
Turning to `Cc1ccc(-n2c(=S)[nH]c3ccc(Br)cc3c2=O)cc1`, the EC50 is over 269 µM and the 50% inhibitory concentration (IC50) was found to be 89.1 µM.
The like results for `c1cc2nnc1SCCCSc1ccc(nn1)SCCCS2` were, in that order, over 126 µM and 115 µM.
Regarding `CC(NC(=O)C(CC(=O)OCc1ccccc1)NC(=O)OCc1ccccc1)c1ccccc1` (configuration not stated), the EC50 was over 200 µM and the IC50 is over 200 µM.
Regarding `CCNC(=O)OCc1cnc(C)c(O)c1COC(=O)NCC`, the EC50 was over 200 µM and the IC50 is over 200 µM.
With `CC(C)C(/C=C/c1ccccc1)=N\NC(=O)N/N=C(/C=C/c1ccccc1)C(C)C`, the EC50 is over 6.76 µM and the IC50 was over 6.76 µM.
For the molecule `CCCCCCCCCCCCCCCCNc1ccn(C2CC(O)C(COC(c3ccccc3)(c3ccccc3)c3ccc(OC)cc3)O2)c(=O)n1` (configuration not stated), the EC50 is over 200 µM and the IC50 stood at 45.7 µM.
With `COC(=O)C12CCC(C(=O)OC)(Cc3c(c4ccccc4n3S(=O)(=O)c3ccccc3)C1)C2=O` (configuration not stated), the EC50 is over 200 µM and the IC50 is 85.1 µM.
Turning to `CC1(C)CC(=O)C(/C=N/C(=S)NC2CCCCC2)=C(O)C1`, the EC50 is over 100 µM and the IC50 is over 100 µM.
As to `Cn1c(COC(=O)Nc2ccccc2)c(COC(=O)Nc2ccccc2)c2ccc3ccccc3c21`, the EC50 was over 200 µM and the IC50 amounted to 0.339 µM.
With `Cc1c/c(=N/NC(=O)c2ccncc2)n2nc(N)sc2n1`, the EC50 is over 200 µM and the IC50 is over 200 µM.
In the case of `CCOC(=O)C(=CNC(=S)N=Nc1c(O)[nH]c2ccccc12)C(=O)OCC`, the EC50 was over 200 µM and the IC50 is 70.8 µM.
The corresponding values for `CCCC(=O)c1c(NOC2OC(COC(C)=O)C(OC(C)=O)C(OC(C)=O)C2OC(C)=O)nc(OC)n(C)c1=O` (configuration not stated) are over 63.1 µM and over 63.1 µM.
The like results for `O=C(C[n+]1ccccc1Br)c1ccc2ccccc2c1` were, in that order, over 200 µM and 9.55 µM.
Consider `C=CCOC(C)n1c(C)c(Br)c(=O)[nH]c1=O` (configuration not stated), for which the outcome was inactive and the IC50 was over 200 µM.
In the case of `C=CC(C)(C)c1c(OC)oc2ccc(OC)c(C)c2c1=O`, the EC50 is over 200 µM and the IC50 was 38.9 µM.
The like results for `CCCCN[C@H]1C2C3CC4C5CC(C42)C1(C)C53` (some centres not stated) were, in that order, over 933 µM and 380 µM.
The like results for `CC(C)C(OC(=O)c1ccc(NCc2cc(O)ccc2O)cc1)C(C)C` were, in that order, over 200 µM and 1.41 µM.
The like results for `CCC/C(Cl)=N/OC(=O)Nc1ccccc1C(F)(F)F` were, in that order, over 20 µM and 3.39 µM.
Regarding `CCOC(=O)C(NC(=O)c1ccccc1)[CH](C)[Sn]([c]1ccccc1)([c]1ccccc1)[c]1ccccc1` (configuration not stated), the EC50 was over 200 µM and the IC50 came to 13.5 µM.
In the case of `COc1ccccc1/C=C1\C(=O)N(C(=O)Cc2ccccc2)N=C1C`, the EC50 is over 15.5 µM and the concentration for half-maximal inhibition (IC50) is over 15.5 µM.
Take `COc1ccc(/C=C\c2cc(OC)c(OC)c(OC)c2)cc1OCC(=O)O`: the result was inactive.
As to `Cc1[nH]n(-c2ccccc2)c(=O)c1/C=N\C(N)=S`, the EC50 was over 200 µM and the IC50 amounted to 182 µM.
With `COc1cccc(N2C(=O)CSC2c2c[nH]c3ccccc23)c1` (configuration not stated), the EC50 was over 22.4 µM and the IC50 was over 22.4 µM.
Consider `COC(=O)C(CC(=O)Nc1ccc(Cl)c(Cl)c1)C(=O)C(=O)Nc1ccc(Cl)c(Cl)c1` (configuration not stated), for which the EC50 was over 52.5 µM and the half-maximal inhibitory concentration (IC50) was over 52.5 µM.
Consider `Nc1ccc2c(c1)Oc1ccc(N)cc1O2`, for which the EC50 was over 200 µM and the IC50 was over 200 µM.
Turning to `CCOC(=O)NC(C(F)(F)F)(C(F)(F)F)P(=O)(OCC(C)C)OCC(C)C`, the EC50 is over 200 µM and the IC50 is 5.37 µM.
Take `Cc1cc(O)c(C=NC(=S)C(N)=S)c(=O)o1`: the EC50 is over 200 µM and the IC50 is 41.7 µM.
As to `CC(=O)N(C(C)=O)n1c(Cc2ccc(Cl)cc2)nn(C(C)=O)c1=O`, the EC50 was over 200 µM and the IC50 is over 200 µM.
`CSc1c(C#N)c2n(c3ccccc3[n+]2C)c2ncccc12`: the EC50 was over 200 µM and the IC50 stood at 3.31 µM.
Consider `O=S(=O)(O)c1cc[c]([Sb](=[O])([OH])[OH])cc1`, for which the EC50 was 0.661 µM and the IC50 was determined as 398 µM.
Regarding `CCCNC(=O)N(C(C)(C)C)S(=O)(=O)c1ccc(Cl)cc1`, the result was inactive.
With `O=c1c2ccccc2n2c(-c3ccccc3O)nnc2n1-c1ccccc1`, the EC50 is over 200 µM and the IC50 is over 200 µM.
Consider `CCSCN(C)c1nc(N(C)C)nc(N(C)C)n1`, for which the EC50 was over 200 µM and the IC50 was determined as 8.51 µM.
As for `BrC1(c2ccccc2)C[n+]2c(-c3ccccc3)cc(-c3ccccc3)cc2-c2ccccc21` (configuration not stated), the EC50 is over 200 µM and the IC50 came to 0.741 µM.
As for `CN(C)CCN1N=Nc2cccc3cccc1c23`, the result was inactive.
Turning to `CCCS(=N)(=O)CCC(N)C(=O)O` (configuration not stated), the EC50 was over 200 µM and the IC50 is over 200 µM.
With `O=C(c1ccccc1)c1oc2ccc(Br)cc2c1-c1cnn(-c2ccccc2)c1`, the outcome was inactive.
`N#Cc1c(N)sc(=S)c2c1CCCC2`: the EC50 was over 22.4 µM and the IC50 was over 22.4 µM.
On to `CCCC(O)S(=O)(=O)O` (configuration not stated), for which the EC50 was over 200 µM and the IC50 is over 200 µM.
Turning to `NC(N)=NS(=O)(=O)c1ccc(NNc2c3ccccc3nc3c(C(=O)Nc4ccc(S(=O)(=O)N=C(N)N)cc4)cccc23)cc1`, the EC50 was over 200 µM and the IC50 was determined as 33.1 µM.
Regarding `COc1ccc(-c2cc(-c3ccncc3)nc(N)c2-c2ccc(F)cc2)cc1`, the EC50 was over 174 µM and the IC50 is over 174 µM.
Take `CC(=O)c1cc2c(cc1C(C)C)CC[C@H]1[C@](C)(C#N)CCC[C@]21C`: the EC50 was over 200 µM; the IC50 is 174 µM and 126 µM.
Consider `CCOC(=O)c1ccc(NC(=O)Nc2ncccc2C)cc1`, for which the EC50 is over 200 µM and the 50% inhibitory concentration (IC50) is over 200 µM.
Take `COC(=O)C1=C2CCC(=O)[C@@]2(C)CC(C)=C(C)C1`: the result was inactive.
On to `CC(C)[C@](O)(C(=O)OCC1=CCN2CC[C@@H](O)[C@@H]12)[C@H](C)O`, for which the EC50 was over 417 µM and the 50% inhibitory concentration (IC50) was over 417 µM.
Turning to `CCOP(=O)(OCC)/C(F)=C/c1ccccc1`, the EC50 was over 200 µM and the IC50 is over 200 µM.
`Cc1cc(=O)oc2cc(O/C(=C\c3ccc(O)cc3)c3nc4ccccc4c(=O)o3)ccc12`: the EC50 is over 22.9 µM and the half-maximal inhibitory concentration (IC50) is over 22.9 µM.
For `O=C(c1ccccc1)C1S(=O)(=O)OCCOS1(=O)=O`, the EC50 was over 5130 µM and the IC50 stood at 3090 µM.
The corresponding values for `CCOC(=O)C(NC(=O)CC)(Nc1ccc(S(=O)(=O)Nc2ncccn2)cc1)C(F)(F)F` (configuration not stated) are over 200 µM and over 200 µM.
The corresponding values for `Cc1ccc(S(=O)(=O)[N-]C2C(=O)c3ccccc3C(=O)C2[n+]2cccc(C(N)=O)c2)cc1` (configuration not stated) are over 200 µM and over 200 µM.
Regarding `Cc1nc(Nc2ccc([N+](=O)[O-])cc2)sc1C(=O)/C=C/c1ccc(N(C)C)cc1`, the EC50 is over 33.1 µM and the IC50 was found to be 18.6 µM.
The like results for `CC(=O)N1N=C(c2ccc3ccccc3c2O)CC1c1cccs1` (configuration not stated) were, in that order, over 200 µM and 12 µM.
The corresponding values for `CN[C@@H]1C[C@H]2O[C@@](C)([C@@H]1OC)n1c3ccccc3c3c4c(c5c6ccccc6n2c5c31)C(=O)N[C@@H]4O` are over 38.9 µM and 0.0309 µM.
As for `CNC(=O)OCc1cnc([N+](=O)[O-])n1C`, the EC50 is over 200 µM and the IC50 was over 200 µM.
Regarding `CC(=O)Nc1ccc(/C=C(\C#N)c2ccccc2)cc1`, the EC50 is over 200 µM and the half-inhibitory concentration (IC50) was over 200 µM.
Consider `O=c1c2cccnc2[nH]c2ccc3[nH]ncc3c12`, for which the EC50 is over 200 µM and the IC50 came to 50.1 µM.
As for `Cc1ccc(C(=O)Nc2ccc(CP(=O)(O)O)cc2)cc1NC(=O)Nc1cc(C(=O)Nc2ccc(CP(=O)(O)O)cc2)ccc1C`, the EC50 is over 50.1 µM and the IC50 is over 50.1 µM.
Consider `CC1(C)CC(C)(C)C1=NNC(N)=O`, for which the EC50 is over 200 µM and the IC50 is over 200 µM.
As for `Cn1c(=O)[nH]c2[nH]c3ccccc3c2c1=O`, the EC50 was over 200 µM and the IC50 is over 200 µM.
With `O=C(Nc1ccn(C2CCC(COC(c3ccccc3)(c3ccccc3)c3ccccc3)O2)c(=O)n1)c1ccccc1` (configuration not stated), the EC50 is over 200 µM and the IC50 turned out to be 9.77 µM.
Turning to `CN(C)CCNC(=O)c1cccc2c1Oc1cccc([N+](=O)[O-])c1O2`, the EC50 was over 200 µM and the IC50 was 22.4 µM.
In the case of `Cc1cc(=O)c2c(o1)-c1c(cc(O)c(O)c1C(=O)O)OC2`, the EC50 is over 871 µM and the IC50 came to 57.5 µM.
As to `CC1NS(=O)(=O)N(C)C1=O` (configuration not stated), the outcome was inactive.
As to `O=[N+]([O-])C(=C(\Cl)NCCO)/C(Cl)=C(/Cl)Br`, the EC50 is over 20 µM and the IC50 turned out to be 1 µM.
`NC(=O)c1ncn(C2CCC(CP(=O)(O)O)C2)c1N` (configuration not stated): the EC50 is over 200 µM and the IC50 is over 200 µM.
`Clc1ccc(Cl)c(-c2csc(-c3cccnc3)n2)c1`: the EC50 is over 200 µM and the IC50 was 36.3 µM.
Take `Cc1ccc(N=NC(=O)NNc2ccc(C)c([N+](=O)[O-])c2)cc1[N+](=O)[O-]`: the EC50 was over 200 µM and the IC50 worked out at 63.1 µM.
On to `N=C(N)SC(c1ccccc1)C(O)c1ccccc1` (configuration not stated), for which the EC50 was over 200 µM and the IC50 came out at 91.2 µM.
As for `O=C(O/N=C1/CCC/C1=C\c1ccccc1)c1ccc(Cl)c(Cl)c1`, the outcome was inactive.
Regarding `O=C(Cc1nccc2c1[nH]c1ccccc12)OC1C#CCSCC#C/C=C\1` (configuration not stated), the EC50 is over 200 µM and the IC50 was 28.2 µM.
In the case of `O=C(c1ccccc1)C(C(=O)c1ccccc1)C1(O)C(=O)c2ccccc2C1=O`, the outcome was inactive.

For the origin of these results see PubChem BioAssay AID179 (DTP/NCI, 2004).
